Patent US20260092085A1, “SYNTHETIC TRIPLEX PEPTIDE NUCLEIC ACID-BASED INHIBITORS FOR CANCER THERAPY” (University of Connecticut, priority 2022, published 2026)

Key:
[1] = system: SUDHL-5 cells; assay: Cell viability by trypan blue assay, SUDHL-5; format: cell-based
Procedure: Cell viability was performed using trypan blue-based assay (n=3 technical triplicate), data represented as mean±(SEM), * represents the statistical analysis were performed relative to Scr-γtcPNA-155 and ♦ represent analysis performed relative to PNA-155. *p<0.05, **p<0.01, ***p<0.001 and ****p<0.0001, ♦p<0.05, ♦♦p<0.01, unpaired two-tailed t-test was used for statistical analysis. The experiment was repeated three times and in triplicate.
Cell viability was performed using trypan blue-based assay (n=3), data represented as mean±standard error mean (SEM), *p<0.05, **p<0.01. Unpaired two-tailed t-test was used for statistical analysis.
Cell viability was performed using trypan blue-based assay (n=3), data represented as mean±standard error mean (SEM).
Cell viability by trypan blue assay: Diffused large B cell lymphoma (DLBCL) cell lines like SUDHL-2 (ATCC® CRL-2956™) and SUDHL-5 (ATCC® CRL-2958™) cells were purchased from ATCC (Virginia, USA). The cells were regularly tested for Mycoplasma contamination using MycoAlert™ Mycoplasma detection kit (Lonza). All the cells used in the experiment were passaged less than 8 times. 10,000 U2932, SUDHL-5, or SUDHL-2 cells were plated in a 96 well plate. The cells were treated with different doses (500 nM, 1000 nM, 2000 nM and 4000 nM) of PNA-155, gamma tcPNA-155 or Scr-γtcPNA-155 for 48 hrs in an incubator (37° C. and 5% CO2). The dead cells were marked with trypan blue. Further counting was performed using an automated cell counter (Bio-rad).

[2] = system: U2932 cells; assay: Annexin V-based apoptosis assay in U2932 cells; format: cell-based, human; settings: 48 hours
Procedure: Quantification of apoptotic cells by flow cytometry after treating U2932 cells with PBS as a control and 500 nM Scr-γtcPNA-155, PNA-155, γPNA-155 and γtcPNA-155 for 48 hours. The apoptotic cells and necrotic were stained using Phycoerythrin (PE) Annexin V and 7-Amino-Actinomycin (7-AAD) respectively. The % apoptotic cells after treatment was compared to the PBS treated cells, by setting the same threshold. Bar graph of % apoptotic cells (n=3 technical triplicate), data represented as mean±standard error mean (SEM), *p<0.05, **p<0.01, ***p<0.001, unpaired two-tailed t-test was used for statistical analysis. Representative dot plots of Scr-γtcPNA-155 and γtcPNA-155 treated U2932 cells. The experiment was repeated three times and in triplicate. One out of three representative experiments are shown.
The apoptotic cells and necrotic were stained using Phycoerythrin (PE) Annexin V and 7-Amino-Actinomycin (7-AAD) respectively. The % apoptotic cells after treatment was compared to the PBS treated cells, by setting the same threshold. Bar graph of % apoptotic cells (n=3 technical triplicate), data represented as mean±standard error mean (SEM), **p<0.01, unpaired two-tailed t-test was used for statistical analysis. Representative dot plots of PBS treated and γtcPNA-155 treated U2932 cells. The experiment was repeated three times and in triplicate. One out of three representative experiments is shown.
Apoptosis Assay: 400,000 U2932 cells were seeded in a 12 well plate. The cells were treated with 500 nM PNA-155, γPNA-155, γtcPNA-155, Scr-γ tcPNA-155 or were PBS treated (control) for 48 hrs in an incubator (37° C., 5% CO2). The cells were washed with PBS twice. The cells were centrifuged at 2000 rpm for 4 mins at 4° C. The cell pellet was suspended in IX Annexin V binding buffer. The cells were then counted and 100 μL of cell suspension (containing 2.5×10^5 cells) was passed through the FACS tube. […] 400 μL of IX Annexin V binding buffer was added to the cells and the cells were then analyzed using LSR Fortessa™ X-20 Cell analyzer as indicated above. […]

## γtcPNA-155: serine gamma tail-clamp anti-miR-155 PNA, RR-TJJJJ-OOO-ACCCCTATCACGATTAGCATTAA-RR, SEQ ID NO: 3 (all peptide nucleic acid (PNA); serine gamma PNA, tail-clamp TJJJJ via linkers, Arg-Arg at both ends)
[1]; SUDHL-5, 500 nM, compared to PNA-155 treated group
  reduction in cell viability at 500 nM: significant reduction in cell viability
[1]; SUDHL-5, 4UM, 48 hours
  decrease in cell viability: ~80%
[2]; U2932, 500 nM
  apoptosis by Annexin-V FITC confocal imaging: higher apoptosis
[2]; U2932, 500 nM, versus PNA-155 and γPNA-155 treated group
  apoptosis by annexin V flow cytometry: increased apoptosis
[2]; U2932, 10 uM
  increase in apoptosis in comparison to control: 4.5 fold
